Laboratory results taken from patent US10012641B2, “G-protein-coupled-receptor-22-transformed cell lines and methods of use thereof to identify binding compounds” (LIBRAMEN NATURALS INC., priority 2014, dated 2018).
Where “and” joins values, the source holds several entries; their conditions need not be identical. Equal values may be shown once. Entries after “also recorded” stand apart in the source; their conditions may differ.

Columns and labels:
[1] = target: T1, GPCR22 (Homo sapiens, UniProt Q99680, C425R); experiment: Erk 1/2 and Akt phosphorylation by guanosine in 1321N1 human astrocytoma cells transfected with GPCR22 DNA (Western Blot); type: cell-based; settings: guanosine 300 μM, compared to non-GPCR22-transfected 1321N1 cells
T1 construct: A full length cDNA clone of human GPCR22 was provided by Origene Technologies; host or cells: 1321N1 human astrocytoma cells, pCMV vector, transient
T1 sequence (Q99680 whole entry C425R): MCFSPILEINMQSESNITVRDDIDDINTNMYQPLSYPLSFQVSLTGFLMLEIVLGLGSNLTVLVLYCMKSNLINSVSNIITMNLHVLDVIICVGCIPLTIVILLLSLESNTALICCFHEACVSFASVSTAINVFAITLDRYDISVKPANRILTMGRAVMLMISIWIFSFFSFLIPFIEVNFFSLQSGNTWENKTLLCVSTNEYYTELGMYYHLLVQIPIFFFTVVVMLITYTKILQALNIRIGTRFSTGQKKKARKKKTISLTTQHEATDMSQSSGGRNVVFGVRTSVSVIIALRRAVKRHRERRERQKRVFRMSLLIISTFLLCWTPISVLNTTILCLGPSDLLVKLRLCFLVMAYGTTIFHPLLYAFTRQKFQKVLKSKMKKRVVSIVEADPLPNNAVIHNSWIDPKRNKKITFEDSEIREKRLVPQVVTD
Description: A full length cDNA clone of human GPCR22 was provided by Origene Technologies. Transient expression in the 1321N1 cell line was performed using a pCMV expression vector. cDNA fragments present in an expression vector (pCMV) is located downstream of a transcriptional promoter capable of driving heterologous gene expression in a variety of mammalian cells. 1321N1 cell lines were transiently transfected with hGPCR22 cloned into pCMV expression vectors (Invitrogen). DNA transfection was performed by lipofection using Lipofectamine (Life Technologies). Twenty-four hours after transfection, the cells were lysed and assayed. RT-PCR analysis using GPCR22 forward: CTCATCTGCTGTTTCCACGA (SEQ. ID NO: 5) and GPCR22 reverse CGGATGTTAAGAGCCTGGAG (SEQ. ID NO: 6), was used to confirm the transfection of GPCR22 (G1) (labelled “1321N1 G1-pCMV Trans”) into 1321N1 cells as shown in FIG. 6a and evidenced by the band at 411 bp. Furthermore, the expression of GPCR22 (labelled “1321N1 G1-pCMV Trans”) in 1321N1 cells as compared to non-G1 transfected cells (labelled “1321N1”) was confirmed by Western Blot analysis using a rabbit polyclonal anti-GPCR22 antibody (NovateinBio, SH-A12465, MA, USA), as shown in FIG. 6b.

[2] = system: non-transfected S2 cells; experiment: Fluo-4 AM imaging of intracellular Ca2+ in non-transfected S2 cells; type: cell-based, Drosophila; settings: guanosine versus vehicle, FIGS. 12a, 12d
Description: Fluo-4 AM calcium imaging was used to visualize intracellular calcium concentration in the GPRC22-transfected and non-transfected S2 cells. A 2.5 mM stock solution of Fluo-4 Am dye (molecular Probes, Burlington, ON) was prepared in DMSO and 20% Pluronic F-127 and used to within a week. The S2 cell preparations were incubated with a final concentration of 5 μM fluo-4AM and 0.02% Pluronic F-127 in 1 ml S2 culture medium for 20 min at room temperature, then washed to allow for full de-esterification of AM esters. Imaging was carried out on an upright Nikon Eclipse FN-S2N upright fluorescence microscope using 10×/40× objectives with a filter to excite Fluo-4, a dye at 488 nm wavelength (peak excitation=494 nm and peak emission=516 nm) using a Lambda DG-4 illuminator (Sutter Instrument Co., Novato, Calif., USA). Images were captured using a Quantem 512SC camera with a frame rate of 5-10 frames per second and Nikon-NIS Elements, advanced research, imaging software. […] ROIs were selected free hand and encompassed the cell body to be analyzed. The ROIs were tracked and the average pixel intensity was measured in that region for the duration of the recording. […] Intracellular calcium concentration of S2 cells was monitored at room temperature. 20-30 S2 cells were calculated to determine the average overall fluorescence signal intracellular calcium concentration. […]

[3] = target: T2, GPCR22 (Rattus norvegicus, UniProt D4A3U0); experiment: [3H]-guanosine binding to GPCR22 protein extracted from transfected S2 cells, competition with cold guanosine; design: expressed in transfected cells; host or cells: Drosophila Schneider 2 (S2) cells, pMT-V5-HisA vector, CuSO4 induction; settings: 10 nM [3H]-guanosine, 25° C., 75 min, FIG. 14
T2 sequence (D4A3U0 whole entry): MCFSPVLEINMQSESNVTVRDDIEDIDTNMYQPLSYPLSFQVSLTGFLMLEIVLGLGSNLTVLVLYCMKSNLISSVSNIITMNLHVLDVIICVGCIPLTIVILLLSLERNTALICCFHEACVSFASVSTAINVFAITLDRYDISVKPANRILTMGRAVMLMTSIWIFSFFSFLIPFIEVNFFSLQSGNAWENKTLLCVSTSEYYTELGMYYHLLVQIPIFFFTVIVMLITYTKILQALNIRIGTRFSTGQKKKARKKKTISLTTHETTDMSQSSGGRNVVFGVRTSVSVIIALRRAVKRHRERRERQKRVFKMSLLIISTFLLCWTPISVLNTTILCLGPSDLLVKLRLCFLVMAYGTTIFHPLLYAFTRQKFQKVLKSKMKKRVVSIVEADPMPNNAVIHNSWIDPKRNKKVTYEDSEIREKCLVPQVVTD
Description: The ability of GPCR22 receptor to bind to guanosine was assessed by performing competitive binding studies in the presence of cold guanosine. GPCR22 protein extracted from transfected […] cells were used in performing receptor-binding studies. The binding of [^3H]-guanosine (“hot” guanosine) to GPCR22 receptor was performed in triplicate in a final volume of 125 μl assay buffer (pH 7.4, 50 mM Tris-HCl, 1 mM EDTA, 5 mM MgCl2, 0.1 mM DTT, 0.1 mM PMSF, 100 mg/ml bacitracin and 5 mg/ml soybean trypsin inhibitor) containing 10 nM [^3H]-guanosine and the following concentrations of unlabeled guanosine (“cold” guanosine) (0.01 μM, 0.1 μM, 1.0 μM, 10 μM, 100 μM and 1 mM) and 50 ug of protein. The incubation of the GPCR22 receptor protein with ligands was carried out at 25° C. for 75 min. At the end of the incubation period, the unbound ligands were separated by vacuum filtration through Whatman GF/B filters. The bound ligand-protein was further washed 3 times with 5 ml of Tris-EDTA buffer, pH 7.4 (50 mM Tris-HCl, 1 mM EDTA). The radioactive filters were placed in plastic counting vials containing 4 ml of scintillation fluid, equilibrated overnight in a dark environment and counted the next day in a Beckman LS5000 liquid scintillation counter Model 1780. Non-specific binding was also calculated by the addition of excess guanosine (10 mM). […]

[4] = target: T2, GPCR22; experiment: Fluo-4 AM imaging of intracellular Ca2+ in GPCR22-transfected S2 cells; type: cell-based; design: expressed in transfected cells; host or cells: Drosophila Schneider 2 (S2) cells, pMT-V5-HisA vector, CuSO4 induction
Description: Fluo-4 AM calcium imaging was used to visualize intracellular calcium concentration in the GPRC22-transfected and non-transfected S2 cells. A 2.5 mM stock solution of Fluo-4 Am dye (molecular Probes, Burlington, ON) was prepared in DMSO and 20% Pluronic F-127 and used to within a week. The S2 cell preparations were incubated with a final concentration of 5 μM fluo-4AM and 0.02% Pluronic F-127 in 1 ml S2 culture medium for 20 min at room temperature, then washed to allow for full de-esterification of AM esters. Imaging was carried out on an upright Nikon Eclipse FN-S2N upright fluorescence microscope using 10×/40× objectives with a filter to excite Fluo-4, a dye at 488 nm wavelength (peak excitation=494 nm and peak emission=516 nm) using a Lambda DG-4 illuminator (Sutter Instrument Co., Novato, Calif., USA). Images were captured using a Quantem 512SC camera with a frame rate of 5-10 frames per second and Nikon-NIS Elements, advanced research, imaging software. Intracellular calcium concentration was created in the Nikon-NIS elements program using regions of interest (ROIs) per each experiment. ROIs were selected free hand and encompassed the cell body to be analyzed. The ROIs were tracked and the average pixel intensity was measured in that region for the duration of the recording. These measurements were then exported to Excel and Clampfit for further analysis of frequency and amplitude. Intracellular calcium concentration of S2 cells was monitored at room temperature. 20-30 S2 cells were calculated to determine the average overall fluorescence signal intracellular calcium concentration. The fluorescence intensity was presented as the ratio F1/F0 in which the raw fluorescence intensity signals of a region of interest (ROI) was compared to the first fluorescence signal in that ROI throughout the recording. The Wilcoxon matched pairs t-test was used on two samples with equal variances to determine statistically significant differences at P=0.05. In each set of experiments, the exposure protocols for control and test conditions were identical.

[5] = system: non-transfected S2 cells; experiment: Actinomycin D-induced apoptosis, Caspase-3 flow cytometry, non-transfected S2 cells; type: cell-based, Drosophila; settings: 100 μM guanosine before 1 μM actinomycin D
Description: (§1) In order to determine whether guanosine produced any anti-apoptotic effects through a GPCR22-mediated mechanism, the effect of guanosine on apoptosis in GPCR22-transfected S2 cells was measured using flow cytometry techniques. Briefly, S2 cells were maintained in Schneider's Drosophila medium (GIBCO) supplemented with 10% heat-inactivated fetal calf serum, penicillin and streptomycin. For induction of apoptosis both receptor-transfected and non-transfected S2 cells were incubated in 1 μM actinomycin D (Sigma) for 6 hours at 25° C. Prior to the induction of apoptosis, to the S2 culture medium were either added 100 μM guanosine or the same amount of vehicle. After a 48 hr incubation with guanosine or vehicle, the cells were fixed with 4% PFA for fluorescent-immunostaining. The primary antibody Caspase-3 (10 μg/ml; R&D systems AF835) was incubated at room temperature for 1.5 hr and the secondary antibody (donkey anti rabbit Alexa488 (1:1800) was incubated at room temperature for 1 hr. After rinsing with PBS cells were re-suspend with “PBS+0.5% BSA” solution for flow cytometry reading using a 8 colour, […] (488 nm, 633 nm, 405 nm) FACS (Canto) machine.

[6] = target: T2, GPCR22; experiment: Erk 1/2 and Akt phosphorylation by guanosine in cultured rat astrocytes treated with siRNA for GPCR22 (Western Blot); type: cell-based; design: endogenous in cells; host or cells: cultured rat (brain) astrocytes
Description: (§2) Transient transfection of siRNAs for the rGPCR22 gene on rat cultured astrocytes and cell extracts were assayed for gene silencing 24 h after transfection was carried out. siRNA duplex specific for the rGPCR22 receptor were designed and chemically synthesized (www.Dharma.com), as well as their non specific control (NSC). Transfection of siRNAs for targeting endogenous genes was carried out using Oligofectamine (Invitrogen, Life Technologies) according to the manufacturer's instruction. Briefly, astrocytes at 60-70% confluence were cultured for 1 day in culture medium without antibiotics. 10 ml siRNA (20 mM) (Dharmacon research, Inc.) were diluted in 175 ml optimem for 5 min at room temperature. In the meantime, 3 ml oligofectamine was mixed in 15 ml optimem for 5 min. RNA interference was performed by mixing diluted oligofectamine and siRNA for 30 min at room temperature and was then added to the cells. The same scheme was performed on other samples using a siRNA-scrambled (NSP=non specific control). Cells were incubated at 37° C. for 24 hours. Twenty-four hours after transfection, the cells were lysed and assayed for gene silencing. The effect of GPCR22 silencing on MAPK and AKT phosphorylation, and cAMP assay was analysed.

[7] = system: GPCR22-transfected S2 cells; experiment: Actinomycin D-induced apoptosis, Caspase-3 flow cytometry, GPCR22-transfected S2 cells; type: cell-based, Drosophila; settings: 100 μM guanosine before 1 μM actinomycin D; FIGS. 11a-d
Description: as §1

[8] = target: T2, GPCR22; experiment: Guanosine binding in rat astrocytes after inhibition of GPCR22 by siRNA; design: endogenous in cells; host or cells: cultured rat (brain) astrocytes; settings: astrocytes with GPCR22 inhibited by siRNA; data not shown
Description: as §2, with “analysed. […]” for “analysed.”

[9] = target: T3, GPCR22 (G1) receptor (Homo sapiens, UniProt Q99680, C425R); experiment: Intracellular cAMP in 1321N1 cell line transfected with GPCR22 (G1) receptor; type: cell-based; settings: increasing concentrations of guanosine, absence and presence of PTX (200 ng/ml, 16 h); FIG. 7e
T3 construct: A full length cDNA clone of human GPCR22 was provided by Origene Technologies; expressed in transfected cells; host or cells: 1321N1 human astrocytoma cells
T3 sequence (Q99680 whole entry C425R): as the sequence (Q99680 whole entry C425R) above

Nc1nc2c(ncn2[C@@H]2O[C@H](CO)[C@@H](O)[C@H]2O)c(=O)[nH]1 [guanosine]
phosphorylation of Erk 1/2 ([1]; FIG. 7c): resulted in phosphorylation of both Erk 1/2 and Akt
phosphorylation of Akt ([1]; FIG. 7d): resulted in phosphorylation of both Erk 1/2 and Akt
intracellular Ca^2+ level [2]: does not induce; also recorded: had no effect
Bmax [3]: 1.05±0.12 pmol mg^−1 protein and 1.057 pmol mg^−1 protein
Kd ([3]; single high affinity binding site): 171 ± 39.8 nM
time of intracellular calcium increase after adding guanosine ([4]; GPCR22-transfected S2 cells): ≤ 2 min
intracellular Ca^2+ level ([4]; GPCR22-transfected S2 cells, FIGS. 12b, 12c, 15): elevate intracellular Ca^2+ levels; also recorded: significantly increases intracellular calcium level
guanosine dose giving peak intracellular calcium increase ([4]; GPCR22-transfected S2 cells, low dose 0.1 μM to 10 μM, FIG. 13g): 5 µM
intracellular Ca^2+ ([4]; guanosine 25 μM, time point 1 min, FIG. 13e): significant increase
intracellular Ca^2+ fluorescence ([4]; guanosine 100 μM, imaging at 0, 0.5, 1 and 2 min, FIGS. 13a-d): fast and transient fluorescence increase
intracellular Ca^2+ response across high doses ([4]; high dose guanosine 25 μM-400 μM, time point 1 min, FIG. 13f): no significant difference
protection from actinomycine-induced apoptotic cell death (Caspase-3) [5]: had no effect
activation of intracellular signaling by guanosine ([6]; astrocytes with GPCR22 inhibited by siRNA, data not shown): abolish
phosphorylation of Erk 1/2 ([6]; guanosine 300 μM, astrocytes treated with si-RNA for GPCR22, FIG. 7a): inhibited
phosphorylation of Akt ([6]; guanosine 300 μM, astrocytes treated with si-RNA for GPCR22, FIG. 7b): inhibited
protection from actinomycine-induced apoptotic cell death (Caspase-3) [7]: protected transfected S2 cells from apoptotic cell death
guanosine binding [8]: abolish
intracellular cAMP levels [9]: increase intracellular cAMP levels
